Results: ChEMBL document CHEMBL1126362, “Episulfide inhibitors of lipoxygenase” (Bioorg Med Chem Lett, 1992)

These compounds were tested against T1, Seed linoleate 13S-lipoxygenase-1 (Glycine max, UniProt P08170) (assay: Inhibitory activity against Soybean type 1 Lipoxygenase (SBLO) was determined).
T1 sequence (P08170 whole entry): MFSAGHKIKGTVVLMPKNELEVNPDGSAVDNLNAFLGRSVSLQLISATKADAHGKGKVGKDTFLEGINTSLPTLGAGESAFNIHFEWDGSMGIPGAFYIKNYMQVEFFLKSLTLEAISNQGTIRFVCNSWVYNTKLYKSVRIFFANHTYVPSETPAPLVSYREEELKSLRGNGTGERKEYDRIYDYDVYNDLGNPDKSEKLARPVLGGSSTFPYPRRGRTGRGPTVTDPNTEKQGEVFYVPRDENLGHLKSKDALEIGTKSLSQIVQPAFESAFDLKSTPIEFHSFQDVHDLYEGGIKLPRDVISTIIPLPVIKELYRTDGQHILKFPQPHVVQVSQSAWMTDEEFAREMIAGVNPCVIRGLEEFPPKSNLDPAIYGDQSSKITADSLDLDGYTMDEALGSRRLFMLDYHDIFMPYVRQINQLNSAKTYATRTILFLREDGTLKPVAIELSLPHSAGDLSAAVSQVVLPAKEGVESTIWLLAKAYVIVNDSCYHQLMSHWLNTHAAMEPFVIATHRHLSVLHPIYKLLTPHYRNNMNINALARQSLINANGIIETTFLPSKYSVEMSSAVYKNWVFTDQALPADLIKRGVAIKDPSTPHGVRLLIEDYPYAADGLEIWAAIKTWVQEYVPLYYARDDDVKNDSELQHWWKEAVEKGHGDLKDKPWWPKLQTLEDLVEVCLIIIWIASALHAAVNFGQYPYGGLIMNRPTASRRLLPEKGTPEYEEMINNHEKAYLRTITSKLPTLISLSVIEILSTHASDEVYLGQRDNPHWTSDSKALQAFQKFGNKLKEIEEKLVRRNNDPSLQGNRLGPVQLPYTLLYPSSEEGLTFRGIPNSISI
In the case of `CCCCCCCCC1OC1CCCCCCCC(=O)O` (configuration not stated), the Ki is reported as over 100 µM.
Compound `CCCCCC1OC1CCCCCCCCCCC(=O)O` (configuration not stated) has a Ki of over 100 µM.
`CCCCCC1SC1C/C=C/CCCCCCCC(=O)O` (configuration not stated) gave a Ki of 2 µM.
`CCCCC/C=C/CC1OC1CCCCCCCC(=O)O` (configuration not stated) was tested, and the Ki was over 100 µM.
`CCCCCCCCC1SC1CCCCCCCC(=O)O` (configuration not stated) gave a Ki of over 100 µM.
With `CCCCCC1SC1CCCCCCCCCCC(=O)O` (configuration not stated) the Ki was 4 µM.
For `CCCCC/C=C/CC1SC1CCCCCCCC(=O)O` (configuration not stated), the Ki was over 100 µM.
